Test results: patent publication US5041567A, “Antibacterial monic acid derivatives” (Beecham Group plc, priority 1982, dated 1991)
≈ marks a conversion by molar mass, not a printed value. Read-outs that look alike come from different tables or passages of the source.

Assays:
[1] = tested on: M. suipneumoniae JF 435; test: MIC against mycoplasma in vitro; type: cell-based; conditions: Mesomycoplasma hyopneumoniae, JF435, 144 h
[2] = tested on: M. suipneumoniae HK(2); test: MIC against mycoplasma in vitro; type: cell-based; conditions: Mesomycoplasma hyopneumoniae, 144 h
[3] = tested on: M. suipneumoniae J2206/183^b; test: MIC against mycoplasma in vitro; type: cell-based; conditions: Mesomycoplasma hyopneumoniae, 144 h
[4] = tested on: M. suipneumoniae MS 16; test: MIC against mycoplasma in vitro; type: cell-based; conditions: Mesomycoplasma hyopneumoniae, MS16, 144 h
[5] = tested on: M. suipneumoniae LABER; test: MIC against mycoplasma in vitro; type: cell-based; conditions: Mesomycoplasma hyopneumoniae, 144 h
[6] = tested on: M. suipneumoniae TAM 6N; test: MIC against mycoplasma in vitro; type: cell-based; conditions: Mesomycoplasma hyopneumoniae, TAM6N, 144 h
[7] = tested on: M. suipneumoniae ATCC 25095; test: MIC against mycoplasma in vitro; type: cell-based; conditions: Mesomycoplasma hyopneumoniae, ATCC25095, 144 h
[8] = tested on: M. suipneumoniae NCTC 10110; test: MIC against mycoplasma in vitro; type: cell-based; conditions: Mesomycoplasma hyopneumoniae, NCTC10110, 144 h
[9] = tested on: M. hyorhinis ATCC 23234; test: MIC against mycoplasma in vitro; type: cell-based; conditions: Mesomycoplasma hyorhinis, ATCC23234, 144 h
[10] = tested on: M. hyorhinis ATCC 25021; test: MIC against mycoplasma in vitro; type: cell-based; conditions: Mesomycoplasma hyorhinis, ATCC25021, 144 h
[11] = tested on: M. hyosynoviae ATCC 25591; test: MIC against mycoplasma in vitro; type: cell-based; conditions: 144 h
[12] = tested on: M. dispar NCTC 10125; test: MIC against mycoplasma in vitro; type: cell-based; conditions: 144 h
[13] = tested on: M. pneumoniae ATCC 15492; test: MIC against mycoplasma in vitro; type: cell-based; conditions: Mycoplasmoides pneumoniae, ATCC15492, 144 h
[14] = tested on: E. coli ESS; test: MIC against human bacteria in vitro; type: cell-based; conditions: Escherichia coli
[15] = tested on: P. mirabilis 889; test: MIC against human bacteria in vitro; type: cell-based
[16] = tested on: K. aerogenes A; test: MIC against human bacteria in vitro; type: cell-based; conditions: Klebsiella aerogenes
[17] = tested on: Pasteurella multocida 1633; test: MIC against human bacteria in vitro; type: cell-based
[18] = tested on: Neisseria catarrhalis 1502; test: MIC against human bacteria in vitro; type: cell-based; conditions: Neisseria catarrhalis 1502; 5% chocolated horse blood agar, 18 hours; read-out: MIC
[19] = tested on: Bacillus subtilis 6633; test: MIC against human bacteria in vitro; type: cell-based
[20] = tested on: Sarcina lutea 8340; test: MIC against human bacteria in vitro; type: cell-based
[21] = tested on: Staph. aureus Oxford; test: MIC against human bacteria in vitro; type: cell-based; conditions: Staphylococcus aureus
[22] = tested on: Staph. aureus Russell; test: MIC against human bacteria in vitro; type: cell-based; conditions: Staphylococcus aureus
[23] = tested on: Staph. aureus W2827; test: MIC against human bacteria in vitro; type: cell-based; conditions: Staphylococcus aureus
[24] = tested on: Strep. faecalis I; test: MIC against human bacteria in vitro; type: cell-based; conditions: Enterococcus faecalis
[25] = tested on: Strep. pyogenes R80/421-A; test: MIC against human bacteria in vitro; type: cell-based; conditions: Streptococcus pyogenes; Strep. pyogenes R80/421-A; 5% chocolated horse blood agar, 18 hours; read-out: MIC
[26] = tested on: Strep. spp. 64/848-C; test: MIC against human bacteria in vitro; type: cell-based
[27] = tested on: Strep. pneumoniae CN33; test: MIC against human bacteria in vitro; type: cell-based; conditions: Streptococcus pneumoniae; Strep. pneumoniae CN33; 5% chocolated horse blood agar, 18 hours; read-out: MIC
[28] = tested on: E. coli E1; test: MIC against veterinary bacteria in vitro; conditions: Escherichia coli, E1, 18 h
Experimental: (§1) The activity of the compounds of the Examples against various veterinarily important bacteria, was assayed in vitro using two-fold serial dilutions in Diagnostic Sensitivity Test Agar inoculated with 10^4 organisms.

[29] = tested on: S. typhimurium S18; test: MIC against veterinary bacteria in vitro; conditions: Salmonella enterica, TYPHIMURIUM, 18 h
Experimental: as §1

[30] = tested on: Bord. bronchiseptica B08; test: MIC against veterinary bacteria in vitro; conditions: Bordetella bronchiseptica, B08, 18 h
Experimental: as §1

[31] = tested on: Past. multocida PA2; test: MIC against veterinary bacteria in vitro; conditions: Pasteurella multocida, PA2, 18 h
Experimental: as §1

[32] = tested on: Staph. aureus B4 (pen. resistant); test: MIC against veterinary bacteria in vitro; conditions: Staphylococcus aureus, 18 h
Experimental: as §1

[33] = tested on: Staph. aureus 152 (pen. sens); test: MIC against veterinary bacteria in vitro; conditions: Staphylococcus aureus, 18 h
Experimental: as §1

[34] = tested on: Strep. suis (group D) SPS11; test: MIC against veterinary bacteria in vitro; conditions: Streptococcus suis, 18 h
Experimental: as §1

[35] = tested on: Strep. uberis SPU1; test: MIC against veterinary bacteria in vitro; conditions: Streptococcus uberis, SPU1, 18 h
Experimental: as §1

SMILES | MIC [1] [µg/mL] | MIC [2] [µg/mL] | MIC [3] [µg/mL] | MIC [4] [µg/mL] | MIC [5] [µg/mL] | MIC [6] [µg/mL] | MIC [7] [µg/mL] | MIC [8] [µg/mL] | MIC [11] [µg/mL] | MIC [12] [µg/mL] | MIC [13] [µg/mL] | MIC [18] [µg/mL] | MIC [25] [µg/mL] | MIC [27] [µg/mL] | MIC [28] [µg/mL] | MIC [29] [µg/mL] | MIC [30] [µg/mL] | MIC [31] [µg/mL] | MIC [32] [µg/mL] | MIC [33] [µg/mL] | also measured
CSc1ccc(-c2cnc(/C=C(\C)C[C@@H]3OC[C@H](C[C@@H]4O[C@H]4[C@@H](C)[C@H](C)O)[C@@H](O)[C@H]3O)o2)cc1 [Example 9, 5-p-methylthiophenyl-2-(1-normon-2-yl)oxazole A] | 0.5 (≈ 1.02 µM) | 0.5 (≈ 1.02 µM) | 0.5 (≈ 1.02 µM) | 0.5 (≈ 1.02 µM) | 0.5 (≈ 1.02 µM) | 0.5 (≈ 1.02 µM) | 0.5 (≈ 1.02 µM) | 0.5 (≈ 1.02 µM) | 0.5 (≈ 1.02 µM) | 0.1 (≈ 0.204 µM) | 1 (≈ 2.04 µM) | 10 (≈ 20.4 µM) | 10 (≈ 20.4 µM) | 10 (≈ 20.4 µM) | > 80 | > 80 | 40 (≈ 81.7 µM) | 5 (≈ 10.2 µM) | 1.25 (≈ 2.55 µM) | 0.625 (≈ 1.28 µM) | MIC ([9]; M. hyorhinis ATCC 23234, 6 days, 37° C., read-out: MIC): 0.5 µg/mL (≈ 1.02 µM); MIC ([10]; M. hyorhinis ATCC 25021, 6 days, 37° C., read-out: MIC): 0.5 µg/mL (≈ 1.02 µM); MIC ([14]; 18 h): 5 µg/mL (≈ 10.2 µM); MIC ([15]; Proteus mirabilis, 889, 18 h): > 100 µg/mL; MIC ([16]; 18 h): > 100 µg/mL; MIC ([17]; Pasteurella multocida, 1633, 18 h): 5 µg/mL (≈ 10.2 µM); MIC ([19]; Bacillus subtilis, 6633, 18 h): 1 µg/mL (≈ 2.04 µM); MIC ([20]; Micrococcus luteus, 8340, 18 h): > 100 µg/mL; MIC ([21]; 18 h): 2.5 µg/mL (≈ 5.11 µM); MIC ([22]; 18 h): 5 µg/mL (≈ 10.2 µM); MIC ([23]; W2827, 18 h): 5 µg/mL (≈ 10.2 µM); MIC ([24]; 18 h): > 100 µg/mL; MIC ([26]; 18 h): 5 µg/mL (≈ 10.2 µM); MIC [34]: 10 µg/mL (≈ 20.4 µM); MIC [35]: 0.16 µg/mL (≈ 0.327 µM)
C/C(=C\c1ncc(-c2ccc(S(C)(=O)=O)cc2)o1)C[C@@H]1OC[C@H](C[C@@H]2O[C@H]2[C@@H](C)[C@H](C)O)[C@@H](O)[C@H]1O [Example 10] | 0.05 (≈ 0.0959 µM) | 0.05 (≈ 0.0959 µM) | 0.05 (≈ 0.0959 µM) | 0.025 (≈ 0.0479 µM) | 0.025 (≈ 0.0479 µM) | 0.05 (≈ 0.0959 µM) | 0.025 (≈ 0.0479 µM) | 0.05 (≈ 0.0959 µM) | 0.05 (≈ 0.0959 µM) | 0.025 (≈ 0.0479 µM) | 0.1 (≈ 0.192 µM) | 8 (≈ 15.3 µM) | 8 (≈ 15.3 µM) | 8 (≈ 15.3 µM) | > 80 | > 80 | > 80 | 1.25 (≈ 2.4 µM) | 5 (≈ 9.59 µM) | 2.5 (≈ 4.79 µM) | MIC [9]: 0.025 µg/mL (≈ 0.0479 µM); MIC [10]: 0.025 µg/mL (≈ 0.0479 µM); MIC ([14]; E. coli ESS, 5% chocolated horse blood agar, 18 hours, read-out: MIC): 8 µg/mL (≈ 15.3 µM); MIC ([15]; Proteus mirabilis, P. mirabilis 889, 5% chocolated horse blood agar, 18 hours, read-out: MIC): > 128 µg/mL; MIC ([16]; K. aerogenes A, 5% chocolated horse blood agar, 18 hours, read-out: MIC): > 128 µg/mL; MIC ([17]; Pasteurella multocida 1633, 5% chocolated horse blood agar, 18 hours, read-out: MIC): 8 µg/mL (≈ 15.3 µM); MIC ([19]; Bacillus subtilis 6633, 5% chocolated horse blood agar, 18 hours, read-out: MIC): 2 µg/mL (≈ 3.83 µM); MIC ([20]; Micrococcus luteus, Sarcina lutea 8340, 5% chocolated horse blood agar, 18 hours, read-out: MIC): > 128 µg/mL; MIC ([21]; Staph. aureus Oxford, 5% chocolated horse blood agar, 18 hours, read-out: MIC): 8 µg/mL (≈ 15.3 µM); MIC ([22]; Staph. aureus Russell, 5% chocolated horse blood agar, 18 hours, read-out: MIC): 8 µg/mL (≈ 15.3 µM); MIC ([23]; Staph. aureus W2827, 5% chocolated horse blood agar, 18 hours, read-out: MIC): 8 µg/mL (≈ 15.3 µM); MIC ([24]; Strep. faecalis I, 5% chocolated horse blood agar, 18 hours, read-out: MIC): > 128 µg/mL; MIC ([26]; Strep. spp. 64/848-C, 5% chocolated horse blood agar, 18 hours, read-out: MIC): 4 µg/mL (≈ 7.67 µM); MIC [34]: 10 µg/mL (≈ 19.2 µM); MIC [35]: 0.625 µg/mL (≈ 1.2 µM)
